# Measurements published in PMC8358987 (Clinical cancer research : an official journal of the …, 2021).
# Key:
# OATP1B1 [1] = biological target: T1, OATP1B1 (Homo sapiens, UniProt Q9Y6L6); assay type: cell-based; details: for Reduction of OATP1B1 function: overexpressing HEK293 cells, 10 μM TKI screen; for Mechanism of OATP1B1 inhibition: kinetic analysis (Dixon plot) and pre-incubation effects
# T1 sequence (Q9Y6L6 1-691): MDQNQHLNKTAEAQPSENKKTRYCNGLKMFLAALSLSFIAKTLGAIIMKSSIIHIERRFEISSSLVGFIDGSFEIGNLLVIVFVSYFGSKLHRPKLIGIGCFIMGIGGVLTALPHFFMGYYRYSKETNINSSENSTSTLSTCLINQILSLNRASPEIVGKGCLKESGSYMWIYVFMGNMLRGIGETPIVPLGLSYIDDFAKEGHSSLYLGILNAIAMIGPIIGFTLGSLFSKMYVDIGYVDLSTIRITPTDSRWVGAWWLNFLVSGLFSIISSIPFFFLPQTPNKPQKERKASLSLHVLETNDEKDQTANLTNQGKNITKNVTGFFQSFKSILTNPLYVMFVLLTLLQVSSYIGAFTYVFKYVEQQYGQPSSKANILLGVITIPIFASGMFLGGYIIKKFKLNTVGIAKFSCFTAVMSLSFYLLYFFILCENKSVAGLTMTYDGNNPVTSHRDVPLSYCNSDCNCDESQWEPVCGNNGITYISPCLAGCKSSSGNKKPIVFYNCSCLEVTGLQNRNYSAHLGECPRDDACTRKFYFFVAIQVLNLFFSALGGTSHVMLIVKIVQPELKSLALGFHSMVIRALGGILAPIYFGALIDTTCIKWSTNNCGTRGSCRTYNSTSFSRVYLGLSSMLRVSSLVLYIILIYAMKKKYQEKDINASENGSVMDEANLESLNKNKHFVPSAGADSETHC
# LYN kinase = LYN kinase (Homo sapiens, UniProt P07948); experiment: Kinase hotspot assay against LYN kinase; assay type: biochemical; details: for Inhibition of LYN kinase activity: 10-dose curve from 50 μM, 10 μM ATP
# OATP1B1 [2] = biological target: T1, OATP1B1; experiment: Cellular accumulation of 3H-lapatinib; assay type: in vitro ADME; details: 3H-lapatinib 1 μM
# OATP1B1 [3] = details: ref prescribing information; cited from earlier work
# PKC = details: concentrations of nilotinib used in the study; cited from earlier work
# OATP1B1 [4] = experiment: Surface expression of OATP1B1 by biotinylation; assay type: cell-based, human; details: 10 μM nilotinib
# OATP1B1 [5] = biological target: T1, OATP1B1; experiment: OATP1B1-dependent uptake of 3H-EβG in human plateable hepatocytes; assay type: cell-based; details: 10 μM, 15 min pre-incubation; 3H-EβG 1 μM, 2 minutes
# OATP1B1 [6] = experiment: Mass spectrometric analysis of OATP1B1 tyrosine phosphorylation; assay type: cell-based, human; details: 10 μM nilotinib 15 minutes
# [7] = cited from earlier work
# Sequence of LYN kinase (P07948 whole entry): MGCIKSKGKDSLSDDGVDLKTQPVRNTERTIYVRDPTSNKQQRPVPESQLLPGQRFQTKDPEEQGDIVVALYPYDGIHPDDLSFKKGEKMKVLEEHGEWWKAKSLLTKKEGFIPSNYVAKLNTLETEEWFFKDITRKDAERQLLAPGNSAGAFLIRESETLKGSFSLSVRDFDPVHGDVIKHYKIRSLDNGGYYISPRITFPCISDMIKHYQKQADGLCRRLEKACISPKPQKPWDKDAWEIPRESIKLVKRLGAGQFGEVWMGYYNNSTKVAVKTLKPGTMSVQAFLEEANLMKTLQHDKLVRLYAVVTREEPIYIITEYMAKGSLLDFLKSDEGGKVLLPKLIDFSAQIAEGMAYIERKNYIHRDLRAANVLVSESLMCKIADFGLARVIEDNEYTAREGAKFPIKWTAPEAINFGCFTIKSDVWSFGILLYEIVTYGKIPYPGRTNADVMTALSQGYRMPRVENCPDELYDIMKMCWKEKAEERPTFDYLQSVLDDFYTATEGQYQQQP
smiles,measurement,setting,value
CNC(=O)c1ccccc1Sc1ccc2c(/C=C/c3ccccn3)n[nH]c2c1 [axitinib],Reduction of OATP1B1 function,OATP1B1 [1],> 75%
COc1cc2nccc(Oc3ccc(NC(=O)C4(C(=O)Nc5ccc(F)cc5)CC4)cc3)c2cc1OC [cabozantinib],Reduction of OATP1B1 function,OATP1B1 [1],> 75%
same,IC50,LYN kinase,15 to 685 nM
CS(=O)(=O)CCNCc1ccc(-c2ccc3ncnc(Nc4ccc(OCc5cccc(F)c5)c(Cl)c4)c3c2)o1 [lapatinib],OATP1B1 substrate status,OATP1B1 [2],transported substrate of OATP1B1
same,Inhibition of LYN kinase activity,LYN kinase,did not inhibit
same,OATP1B1 substrate/inhibitor status per prescribing information,OATP1B1 [3],can reduce OATP1B1 function
O=C(Nc1cnn2ccc(N3CCC[C@@H]3c3cc(F)ccc3F)nc12)N1CC[C@H](O)C1 [larotrectinib],OATP1B1 substrate/inhibitor status per prescribing information,OATP1B1 [3],neither a substrate nor an inhibitor of OATP1B1
Cc1cn(-c2cc(NC(=O)c3ccc(C)c(Nc4nccc(-c5cccnc5)n4)c3)cc(C(F)(F)F)c2)cn1 [nilotinib],Effect on PKC activity,PKC,do not affect PKC activity
same,Effect on membrane surface expression of OATP1B1,OATP1B1 [4],not associated with significantly reduced membrane surface expression
same,Mechanism of OATP1B1 inhibition,OATP1B1 [1],predominantly non-competitive
same,Reduction of OATP1B1 function,OATP1B1 [1],> 75%
same,Effect on OATP1B1-dependent transport ex vivo in human hepatocytes,OATP1B1 [5],reduces OATP1B1-dependent transport
same,Effect on overall tyrosine phosphorylation of OATP1B1,OATP1B1 [6]; overexpressing HEK293 cells,no significant effect
same,Effect on OATP1B1 phosphorylation at Y645,OATP1B1 [6]; P<0.05,significantly reduced
same,Effect on OATP1B1 phosphorylation of Y640 alone,"OATP1B1 [6]; trend, P = 0.11",not significantly reduced
CC(C)(C)c1nc(-c2cccc(NS(=O)(=O)c3c(F)cccc3F)c2F)c(-c2ccnc(N)n2)s1 [dabrafenib],Effect on systemic concentrations of the OATP1B1 substrate rosuvastatin,[7],increase the systemic concentrations
same,Reduction of OATP1B1 function,OATP1B1 [1],> 75%
Cc1ccc(Nc2nccc(N(C)c3ccc4c(C)n(C)nc4c3)n2)cc1S(N)(=O)=O [pazopanib],Effect on systemic concentrations of the OATP1B1 substrate rosuvastatin,[7],increase the systemic concentrations
CC(=O)Nc1cccc(-n2c(=O)n(C3CC3)c(=O)c3c(Nc4ccc(I)cc4F)n(C)c(=O)c(C)c32)c1 [trametinib],Mechanism of OATP1B1 inhibition,OATP1B1 [1],competitive
same,Inhibition of LYN kinase activity,LYN kinase,did not inhibit
CNC(=O)c1cc(Oc2ccc(NC(=O)Nc3ccc(Cl)c(C(F)(F)F)c3)cc2)ccn1 [sorafenib],Reduction of OATP1B1 function,OATP1B1 [1],> 75%
